Results published in patent publication US20250163119A1, “COMPOUNDS FOR THE TREATMENT OF DIABETES OR OBESITY” (Eli Lilly and Company, priority 2023, published 2025).
Where “and” joins values, the source holds several entries; their conditions need not be identical. Equal entries are not always repeated. Where two headings read alike, the source gives them in different places. *1 amine or outer side, *2 acyl side, *3 side chain or, on linkers, in order; H or OH if unused. Where a SMILES comes first, the peptide text is derived from it. Side-chain parts run from the residue outwards. [ ]: non-standard residue; d: D form. The star is where a group is joined. C20 diacid = O=C(O)CCCCCCCCCCCCCCCCCCC(=O)*; γGlu = O=C(O)[C@H](CCC(=O)[*:2])N[*:1]; εLys = N[C@@H](CCCCN[*:1])C(=O)[*:2]; NMeI = CC[C@H](C)[C@H](NC)C(=O)O; αMeL = CC(C)C[C@](C)(N)C(=O)O; AEEA = NCCOCCOCC(=O)O; Aib = CC(C)(N)C(=O)O

Key:
human CRHR2 = target: T1, human CRHR2 (Homo sapiens, UniProt Q13324); assay: Human CRHR2 cAMP assay (HTRF) in HEK293 cells stably expressing human CRHR2; type: cell-based; conditions: HEK293 cells overexpressing human CRHR2; relative EC50, maximum 10 nM human UCN2; mean ± SE; read-out: hCRHR2 cAMP EC50 (pM, ± SE)
T1 construct: expressed in transfected cells
T1 sequence (Q13324 1-438 isoform Q13324-2): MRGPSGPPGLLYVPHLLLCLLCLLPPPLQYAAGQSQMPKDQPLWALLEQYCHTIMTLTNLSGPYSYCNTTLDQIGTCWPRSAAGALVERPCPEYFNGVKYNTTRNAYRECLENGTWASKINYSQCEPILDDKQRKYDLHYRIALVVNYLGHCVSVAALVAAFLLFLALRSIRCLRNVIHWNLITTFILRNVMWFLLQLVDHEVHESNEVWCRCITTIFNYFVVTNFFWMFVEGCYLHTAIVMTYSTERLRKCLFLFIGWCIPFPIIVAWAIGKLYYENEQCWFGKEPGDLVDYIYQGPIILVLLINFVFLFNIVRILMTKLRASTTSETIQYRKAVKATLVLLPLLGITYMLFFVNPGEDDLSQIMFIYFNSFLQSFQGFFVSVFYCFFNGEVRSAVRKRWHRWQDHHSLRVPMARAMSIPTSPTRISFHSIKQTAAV
Procedure, shortened: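 Peptide-stimulated cAMP was measured in stable HEK293 lines by HTRF ratio (665/620 nm), converted to pmol/well via standard curve. Assay buffer contained 0.25 mM IBMX, 0.1% casein and 5 mM HEPES pH 7.4. CRHR2b cells (5,000/well) were stimulated 30 min at room temperature; CRHR1 cells (25,000/well) 1 h at 37 °C.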

[1] = Pharmacokinetics in Sprague Dawley rats, single subcutaneous or intravenous dose (incl. 10, 30, 100 nmol/kg dose response); type: in vivo; conditions: for Tmax: read-out: Tmax
[2] = male, Sprague Dawley, rat, plasma, iv, 197 nmol/kg, single intravenous dose 197 nmol/kg, individual animal
[3] = male, Sprague Dawley, rat, plasma, iv, 197 nmol/kg, single intravenous dose 197 nmol/kg, mean
[4] = male, Sprague Dawley, rat, plasma, sc, 197 nmol/kg, single subcutaneous dose 197 nmol/kg, individual animal
[5] = male, Sprague Dawley, rat, plasma, sc, 197 nmol/kg, single subcutaneous dose 197 nmol/kg, mean
[6] = single intravenous dose 197 nmol/kg, male Sprague Dawley rats, individual animal
[7] = single subcutaneous dose 197 nmol/kg, male Sprague Dawley rats, individual animal

CC[C@H](C)[C@H](NC(C)=O)C(=O)N[C@H](C(=O)N[C@H](C(=O)N[C@@H](CO)C(=O)N[C@@](C)(CC(C)C)C(=O)N[C@@H](CC(=O)O)C(=O)N[C@@H](C(=O)N1CCC[C@H]1C(=O)N[C@H](C(=O)NCC(=O)N[C@@](C)(CC(C)C)C(=O)N[C@@H](CC(C)C)C(=O)N[C@@H](CCC(N)=O)C(=O)N[C@H](C(=O)N[C@@H](CCCCN)C(=O)N[C@@H](CC(C)C)C(=O)N[C@@H](CCC(=O)O)C(=O)N[C@@H](CCC(N)=O)C(=O)N[C@@H](CCC(=O)O)C(=O)N[C@@H](CCCNC(=N)N)C(=O)N[C@@H](C)C(=O)N[C@@H](CCC(=O)O)C(=O)N[C@@H](CCCCN)C(=O)N[C@@H](C)C(=O)N[C@@H](CCCNC(=N)N)C(=O)N[C@@H](CCC(N)=O)C(=O)N[C@@H](CCC(N)=O)C(=O)N[C@@H](C)C(=O)N[C@@H](CCCCNC(=O)COCCOCCNC(=O)COCCOCCNC(=O)CC[C@H](NC(=O)CCCCCCCCCCCCCCCCCCC(=O)O)C(=O)O)C(=O)N[C@@H](CCC(=O)O)C(=O)N[C@@H](CC(N)=O)C(=O)N[C@H](C(=O)N[C@@H](CCC(=O)O)C(=O)N[C@H](C(=O)N[C@@H](CC(C)C)C(=O)N[C@@H](C)C(=O)N[C@@H](CCC(N)=O)C(=O)N[C@H](C(N)=O)C(C)C)[C@@H](C)CC)[C@@H](C)O)[C@@H](C)CC)[C@@H](C)O)C(C)C)[C@@H](C)O)C(C)C [SEQ ID NO: 29, Ac-IVTS αMeL D (D-Val) PTG αMeL LQIKLEQERAEKARQ QAK((2-[2-(2-Amino-ethoxy)-ethoxy]-acetyl)2-γE-CO-(CH2)18-CO2H)ENTEILAQV-NH2] (Ac-IVTS[αMeL]D[dV]PTG[αMeL]LQIKLEQERAEKARQQAK([AEEA-AEEA-γGlu-C20 diacid])ENTEILAQV-NH2)
EC50 (human CRHR2): 5.6 ± 0.4 pM
clearance [1, 2]: 1.66 mL/h/kg
half-life [1, 2]: 41.7 h
clearance [1, 3]: 1.47 mL/h/kg
half-life [1, 3]: 45.5 h
half-life [1, 4]: 52.8 h
CL/F ([1]; male, Sprague Dawley, rat, plasma, sc, 197 nmol/kg, single subcutaneous dose 197 nmol/kg, individual animal, read-out: CL/F (converted)): 2.35 mL/h/kg
Tmax [1, 4]: 24 h
half-life [1, 5]: 47 h
CL/F ([1]; male, Sprague Dawley, rat, plasma, sc, 197 nmol/kg, single subcutaneous dose 197 nmol/kg, mean, read-out: CL/F (converted)): 2.48 mL/h/kg
Tmax [1, 5]: 24 h
AUC0-inf ([1]; rat, plasma, sc, single subcutaneous dose 197 nmol/kg, male Sprague Dawley rats, mean, read-out: AUC0-inf): 89.9 µM·h
Cmax ([1]; rat, plasma, sc, single subcutaneous dose 197 nmol/kg, male Sprague Dawley rats, mean, read-out: Cmax): 815 nM
AUC0-inf ([1]; rat, plasma, single intravenous dose 197 nmol/kg, male Sprague Dawley rats, mean, read-out: AUC0-inf): 136 µM·h
C0 ([1]; rat, plasma, single intravenous dose 197 nmol/kg, male Sprague Dawley rats, mean, read-out: C0): 4270 nM
AUC0-inf [1, 6]: 119 µM·h and 152 µM·h and 136 µM·h
C0 [1, 6]: 6910 nM and 4840 nM and 1050 nM
CL [1, 6]: 1.30 mL/h/kg and 1.45 mL/h/kg
T1/2 [1, 6]: 45.2 h and 49.6 h
AUC0-inf [1, 7]: 96.8 µM·h and 82.9 µM·h
CL/F [1, 7]: 2.61 mL/h/kg
Cmax [1, 7]: 881 nM and 749 nM
T1/2 [1, 7]: 41.1 h

CC[C@H](C)[C@H](NC)C(=O)N[C@H](C(=O)N[C@@H](CC(C)C)C(=O)N[C@@H](CO)C(=O)N[C@@H](CC(C)C)C(=O)N[C@@H](CC(=O)O)C(=O)N[C@H](C(=O)N1CCC[C@H]1C(=O)N[C@H](C(=O)NCC(=O)N[C@@H](CC(C)C)C(=O)N[C@@H](CC(C)C)C(=O)N[C@@H](CCC(N)=O)C(=O)N[C@H](C(=O)N[C@@H](CC(C)C)C(=O)N[C@@H](CC(C)C)C(=O)N[C@@H](CCC(=O)O)C(=O)N[C@@H](CCC(N)=O)C(=O)N[C@@H](CCC(=O)O)C(=O)N[C@@H](CCCCN)C(=O)N[C@@H](CCC(N)=O)C(=O)N[C@@H](CCC(=O)O)C(=O)N[C@@H](CCCCN)C(=O)N[C@@H](CCC(=O)O)C(=O)N[C@@H](CCCCN)C(=O)N[C@@H](CCC(N)=O)C(=O)N[C@@H](CCC(N)=O)C(=O)N[C@@H](C)C(=O)N[C@@H](CCCCNC(=O)COCCOCCNC(=O)COCCOCCNC(=O)CC[C@H](NC(=O)CC[C@H](NC(=O)CCCCCCCCCCCCCCCCCCC(=O)O)C(=O)O)C(=O)O)C(=O)N[C@H](C(=O)N[C@@H](CC(N)=O)C(=O)N[C@@H](C)C(=O)N[C@@H](CCC(N)=O)C(=O)N[C@H](C(=O)N[C@@H](CC(C)C)C(=O)N[C@@H](C)C(=O)N[C@@H](CCC(N)=O)C(=O)N[C@H](C(N)=O)C(C)C)[C@@H](C)CC)[C@@H](C)O)[C@@H](C)CC)[C@@H](C)CC)C(C)C)C(C)C [SEQ ID NO: 54] (H-[NMeI]VLSLDVPIGLLQILLEQEKQEKEKQQAK([AEEA-AEEA-γGlu-γGlu-C20 diacid])TNAQILAQV-NH2)
EC50 (human CRHR2): 29.8 ± 2.5 pM

Ac-GSPSIVTS[αMeL]DVPT[Aib][αMeL]LQKLLEQERAEKARQQAK([γGlu-AEEA-εLys-C20 diacid])EAAEILAQV-NH2 [SEQ ID NO: 2, Ac-GSPSIVTS αMeL DVPT Aib αMeL LQKLLEQERAEKARQQAK(γE-(2-[2-(2-Amino-ethoxy)-ethoxy]-acetyl)-ϵK-CO-(CH2)18-CO2H)EAAEILAQV-NH2]
EC50 (human CRHR2): 12.3 ± 1.8 pM

Ac-PPPIVTS[αMeL]DVPT[Aib][αMeL]LQKLLEQERAEKARQQAK([γGlu-AEEA-εLys-C20 diacid])EAAEILAQV-NH2 [SEQ ID NO: 48, Ac-PPPIVTS αMeL DVPT Aib αMeL LQKLLEQERAEKARQQAK(γE-(2-[2-(2-Amino-ethoxy)-ethoxy]-acetyl)-ϵK-CO-(CH2)18-CO2H)EAAEILAQV-NH2]
EC50 (human CRHR2): 26.7 ± 3.8 pM
